According to ChEMBL document CHEMBL1201862, “PubChem BioAssay data set” (2004):
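Compound exposure: 48 hours, 5 concentrations, 96-well plates. GI50 is the concentration that inhibits growth by half.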 The source made the active and inactive calls. Rule as the data show it: active = GI50 up to about 1.1 µM and inactive = higher.

What was measured:
Test in all cases: NCI-60 cell line screen, 48 h
[1] = system: EKVX
[2] = system: HCC 2998
[3] = system: HL-60
[4] = system: HOP-92
[5] = system: M14
[6] = system: MCF7
[7] = system: MDA-MB-231
[8] = system: MDA-N
[9] = system: Malme-3M
[10] = system: NCI-H226
[11] = system: NCI-H460
[12] = system: NCI-H522
[13] = system: OVCAR-5
[14] = system: RPMI-8226
[15] = system: RXF 393
[16] = system: SF-539
[17] = system: SNB-19
[18] = system: SR
[19] = system: SW-620
[20] = system: TK-10

| SMILES | GI50 [1] | GI50 [2] | GI50 [3] | GI50 [4] | GI50 [5] | GI50 [6] | GI50 [7] | GI50 [8] | GI50 [9] | GI50 [10] | GI50 [11] | GI50 [12] | GI50 [13] | GI50 [14] | GI50 [15] | GI50 [16] | GI50 [17] | GI50 [18] | GI50 [19] | GI50 [20] |
| --- | --- | --- | --- | --- | --- | --- | --- | --- | --- | --- | --- | --- | --- | --- | --- | --- | --- | --- | --- | --- |
| CN(C)C(=S)NC(=S)Nc1ccc2ccccc2c1 | 14.1 µM (inactive) | 15.5 µM (inactive) | 5.69 µM (inactive) | 17 µM (inactive) | 12.7 µM (inactive) | 10.3 µM (inactive) | 20 µM (inactive) | 12.9 µM (inactive) | 13.8 µM (inactive) | 12.1 µM (inactive) | 3.94 µM (inactive) | 5.7 µM (inactive) | 21.2 µM (inactive) | 5.56 µM (inactive) | 18.4 µM (inactive) | 15.1 µM (inactive) | 12.3 µM (inactive) | 3.97 µM (inactive) | 9.89 µM (inactive) | 22.7 µM (inactive) |
| O=C(CCN1CCCCC1)Nc1ccc2c(c1)C(=O)c1ccc(NC(=O)CCN3CCCCC3)cc1C2=O | 15.6 µM (inactive) | 4.45 µM (inactive) | 2.79 µM (inactive) | 15.4 µM (inactive) | 5.73 µM (inactive) | 2.31 µM (inactive) | 2.04 µM (inactive) | 1.65 µM (inactive) | 10.5 µM (inactive) | 15.6 µM (inactive) | 1.57 µM (inactive) | 16.9 µM (inactive) | 16.5 µM (inactive) | 4.43 µM (inactive) | 3.85 µM (inactive) | 2.61 µM (inactive) | 4.48 µM (inactive) | 2.47 µM (inactive) | 2.1 µM (inactive) | 8.34 µM (inactive) |
| O=C1CC(NC2CC(=O)c3c(Br)sc(Br)c32)c2c(Br)sc(Br)c21 (stereo not given) | 3 µM (inactive) | 17 µM (inactive) | 2.46 µM (inactive) | 6 µM (inactive) | 5.58 µM (inactive) | 2.81 µM (inactive) | 3.42 µM (inactive) | 2.06 µM (inactive) | 2.29 µM (inactive) | 17.4 µM (inactive) | 18 µM (inactive) | 1.81 µM (inactive) | 20.2 µM (inactive) | 0.597 µM (active) | 3.38 µM (inactive) | 1.27 µM (inactive) | 14.9 µM (inactive) | 2.28 µM (inactive) | 2.08 µM (inactive) | 2.88 µM (inactive) |
| CC(NNC(=O)c1cc[n+]([BH2-]C#N)cc1)C(F)(F)F (stereo not given) | > 100 µM (inactive) | > 100 µM (inactive) | > 100 µM (inactive) | > 100 µM (inactive) | > 100 µM (inactive) | > 100 µM (inactive) | > 100 µM (inactive) | > 100 µM (inactive) | > 100 µM (inactive) | > 100 µM (inactive) | > 100 µM (inactive) | > 100 µM (inactive) | > 100 µM (inactive) | > 100 µM (inactive) | > 100 µM (inactive) | > 100 µM (inactive) | > 100 µM (inactive) | > 100 µM (inactive) | > 100 µM (inactive) | > 100 µM (inactive) |
| NC1CC(=O)c2csc(Br)c21 (stereo not given) | 15.1 µM (inactive) | 18.5 µM (inactive) | 4.39 µM (inactive) | 9.89 µM (inactive) | 19.5 µM (inactive) | 21.1 µM (inactive) | 23.9 µM (inactive) | 13.6 µM (inactive) | 17.2 µM (inactive) | 22.9 µM (inactive) | 20.3 µM (inactive) | 2.05 µM (inactive) | 14.4 µM (inactive) | 4.82 µM (inactive) | 17.2 µM (inactive) | 2.52 µM (inactive) | 23.3 µM (inactive) | 5.09 µM (inactive) | 4.84 µM (inactive) | 12.9 µM (inactive) |
| CN(C)Cc1cc(C(=O)/C=C/c2ccccc2)cc(CN(C)C)c1O | 33.6 µM (inactive) | 21.3 µM (inactive) | 15.5 µM (inactive) | 26.7 µM (inactive) | 20.7 µM (inactive) | 30.8 µM (inactive) | 21.9 µM (inactive) | 13.3 µM (inactive) | 22.6 µM (inactive) | 27.9 µM (inactive) | 15.9 µM (inactive) | 19.5 µM (inactive) | 87.5 µM (inactive) | 11.8 µM (inactive) | 16.5 µM (inactive) | 19.7 µM (inactive) | 29.1 µM (inactive) | 19.7 µM (inactive) | 18.2 µM (inactive) | 37.3 µM (inactive) |
| CC(=O)OCc1ccc2oc(=O)c(C(=O)Oc3ccccc3)cc2c1 | 37.8 µM (inactive) | > 100 µM (inactive) | 52.1 µM (inactive) | 20.3 µM (inactive) | > 100 µM (inactive) | 30.3 µM (inactive) | 27.8 µM (inactive) | > 100 µM (inactive) | > 100 µM (inactive) | > 100 µM (inactive) | 67.1 µM (inactive) | > 100 µM (inactive) | > 100 µM (inactive) | > 100 µM (inactive) | 44.6 µM (inactive) | > 100 µM (inactive) | > 100 µM (inactive) | 33.3 µM (inactive) | 32.9 µM (inactive) | 23.8 µM (inactive) |
| COc1cccc2c1C(=O)c1ccc3cc(CCl)cc(O)c3c1C2=O | 1.09 µM (active) | 0.951 µM (active) | 0.21 µM (active) | 0.394 µM (active) | 0.229 µM (active) | 0.289 µM (active) | 0.205 µM (active) | 0.231 µM (active) | 0.188 µM (active) | 0.869 µM (active) | 0.196 µM (active) | 0.552 µM (active) | 0.157 µM (active) | 0.182 µM (active) | 0.244 µM (active) | 0.272 µM (active) | 0.897 µM (active) | 0.04 µM (active) | 0.127 µM (active) | 0.238 µM (active) |
| CC1(C)CC[C@]2(C(=O)O)CC[C@]3(C)C(=CC[C@@H]4[C@@]5(C)C[C@H](O)[C@H](O)[C@@](C)(C(=O)O)[C@@H]5CC[C@]43C)[C@@H]2C1 | > 100 µM (inactive) | > 100 µM (inactive) | > 31.6 µM (inactive) | > 100 µM (inactive) | > 100 µM (inactive) | > 100 µM (inactive) | > 100 µM (inactive) | > 100 µM (inactive) | > 100 µM (inactive) | > 90.8 µM (inactive) | > 100 µM (inactive) | > 100 µM (inactive) | > 100 µM (inactive) | > 86.9 µM (inactive) | > 100 µM (inactive) | > 100 µM (inactive) | > 100 µM (inactive) | > 100 µM (inactive) | > 100 µM (inactive) | > 100 µM (inactive) |
| COc1ccc(C(=C2C(=O)OC(=O)C2=C(C)C)c2ccc(OC)cc2)cc1 | 27 µM (inactive) | > 100 µM (inactive) | 31.2 µM (inactive) | > 100 µM (inactive) | 85.1 µM (inactive) | > 100 µM (inactive) | > 100 µM (inactive) | > 100 µM (inactive) | 92 µM (inactive) | > 100 µM (inactive) | > 100 µM (inactive) | 23.2 µM (inactive) | 79.1 µM (inactive) | 28.8 µM (inactive) | > 100 µM (inactive) | > 100 µM (inactive) | 57.4 µM (inactive) | 38.5 µM (inactive) | > 100 µM (inactive) | > 100 µM (inactive) |
| CCOC(=O)/C=C(/C(=O)OCC)n1ccc(=O)n(Cc2cnnn2COCCOC(C)=O)c1=O | 16.5 µM (inactive) | 16.2 µM (inactive) | 0.018 µM (active) | 2.08 µM (inactive) | 17.1 µM (inactive) | 10.4 µM (inactive) | 18.6 µM (inactive) | 23.2 µM (inactive) | 12.5 µM (inactive) | 24.3 µM (inactive) | > 43 µM (inactive) | 1.95 µM (inactive) | 18.2 µM (inactive) | 10.9 µM (inactive) | 15.4 µM (inactive) | 11 µM (inactive) | > 31.6 µM (inactive) | 13.4 µM (inactive) | 3.98 µM (inactive) | 7.26 µM (inactive) |
| C/N=c1\sc2nc(C#N)c(C#N)nc2n1C | 18.5 µM (inactive) | 25.5 µM (inactive) | 10.9 µM (inactive) | 21.2 µM (inactive) | 23 µM (inactive) | 18.5 µM (inactive) | 40.1 µM (inactive) | 22.4 µM (inactive) | 17.6 µM (inactive) | 16.2 µM (inactive) | 19.1 µM (inactive) | 15 µM (inactive) | 19.2 µM (inactive) | 44.4 µM (inactive) | 18.7 µM (inactive) | 38.7 µM (inactive) | 28.4 µM (inactive) | > 57 µM (inactive) | 18.4 µM (inactive) | 25.5 µM (inactive) |
